Laboratory results published in patent US20040241166A1, “Use of inhibitors of ikk-beta and method for discovery of said inhibitors” (priority 2001, published 2004).

Tests used:
[1] = system: IKK complex; experiment: Immunoprecipitation and kinase assay of IKK complex from stimulated HUVEC (GST-IκB-α phosphorylation); type: cell-based, human
Description: Cells were incubated as indicated and cytosol extracts were made. Immunoprecipitation (IP) with antikinase antibodies as indicated was followed by a kinase assay using the substrate GST.IκB-α in the presence of ^32P-ATP. A time-dependent phosphorylation of the substrate is shown in each case after stimulation of HUVEC with blood platelets (PLT; 2×10^8/ml) (FIG. 6A), IL-1β (100 pg/ml) (FIG. 6B) or TNF (1.67 ng/ml) (FIG. 6C). A representative experiment is shown for each case (n=3). FIG. 6D: the kinase assays were scanned and analysed densitometrically.
Cytosol extracts were subjected to immunoprecipitation (IP) (7) in TNT buffer containing 1 mM dithiothreitol, 0.5 μM 4-(2-aminoethyl)-benzenesulfonyl fluoride (AEBSF) and 0.75 μg/ml each of leupeptin, antipain, aprotinin, pepstatin A and chymostatin (Sigma). […] After washing three times with TNT and kinase buffer each time (20 mM HEPES, pH 8.0; 10 mM MgCl2, 100 μM Na3VO4; 20 mM β-glycerophosphate; 50 mM NaCl; 2 mM dithiothreitol; 0.5 μM AEBSF; 0.75 μg/ml each of leupeptin, antipain, aprotinin, pepstatin A, chymostatin), the precipitated proteins were analysed by a kinase assay. […] Proteins were analysed with PAGE and visualised by means of autoradiography. […]

[2] = system: IκB-α and IκB-ε; experiment: Western blot of IκB-α/IκB-ε proteolysis in stimulated HUVEC; type: cell-based, human
Description: FIG. 5A: nuclear extracts from HUVEC stimulated with blood platelets (PLT; 2×10^8/ml) were examined by EMSA for NF-κB or Sp-1 binding, which is shown in brackets. FIG. 5B: cytosol extracts from cells stimulated with blood platelets were analysed by means of western blots. The proteins IκB-α, IκB-ε, IKK-α and IKK-β are indicated by arrow heads. α-Actin was used as a loading control. FIG. 5C: cytosol extracts from cells stimulated with IL-β (100 pg/ml) were examined by means of western blots. FIG. 5D: cells were incubated with TNF (1.67 ng/ml) and cytosol extracts were examined by means of western blots. The top arrow indicates the phosphorylated forms of IκB-α or IκB-ε. A representative blot is shown for all cases (n=3).
Cytosol extracts were isolated, and electrophoresis and blotting were carried out as described in the prior art (6, 7). After transfer, the membranes were incubated with antibodies to IκB-α (Santa Cruz Biotechnology, Heidelberg), IκB-ε (Prof. N. Rice, NIH, Frederick, Md.), IKK-α, IKK-β (Santa Cruz Biotechnology) or α-actin (Sigma). The proteins were visualised on X-ray film using a western blot chemiluminescence reagent (NEN Life Science Products). Protein sizes were confirmed by means of molecular weight standards (Amersham Pharmacia Biotech, Braunschweig, Bio-Rad, Munich). […]

Substance: IL-1β: cytokine used as stimulus of HUVEC, 100 pg/ml
- time for which IKK activation is maintained [1]: at least 90 minutes
- time of IKK activation peak [1]: 45 min
- beginning of IκB-α degradation after incubation [2]: 15 min
- time of significant IκB-ε proteolysis [2]: 60 min
